Columns and labels:
[1] = tested on: angiotensin II (response of the isolated portal vein); experiment: Antagonistic activity of angiotensin II on the isolated portal vein; conditions: portal vein of male Wistar rats; angiotensin II 3.10^-8 M; compound 15 minutes before; 37° C.; verapamil 1.10^-6 M; read-out: IC50 (dose which produces a 50% inhibition of the response to angiotensin)
Description: The portal vein of male Wistar rats (about 350 g) (IFFA Credo France) is removed after cervical dislocation and placed rapidly in a physiological solution (see below) at ambient temperature. A ring of about 1 mm is mounted in a bath with an isolation mechanism, containing 20 ml of the following physiological solution (composition in mM: NaCl 118.3 - KCl 4.7 - MgSO4 1.2 - KH2 PO4 1.2 - NaHCO3 25 - glucose 11.1 - CaCl2 2.5), the medium is maintained at 37° C. and oxygenated with an oxygen (95%), carbon dioxide (5%) mixture. The initial pressure imposed is 1 g, the rings are left at rest for 60 to 90 minutes. In order to avoid spontaneous contractions, verapamil is added to the incubation bath (1.10^-6 M).
At the end of the rest period angiotensin II (Ciba hypertensin) 3.10^-8 M is added to the incubation bath and left in contact with the preparation for one minute. This operation is repeated every 30 minutes, the tissue being washed 3 or 4 times between two stimulations by angiotensin. The compound to be studied is introduced into the bath 15 minutes before a new stimulation by angiotensin. Increasing concentrations of the product to be studied are used and the IC50 (dose which produces a 50% inhibition of the response to angiotensin) of the product to be studied is calculated, this is expressed in nanomoles.

[2] = tested on: angiotensin II (pressure effects); experiment: Test for antagonistic activity of angiotensin II in a demedullated rat; format: in vivo; conditions: iv, demedullated male Sprague-Dawley rats, jugular vein injection 5 minutes before angiotensin II (0.75 micrograms/kg), diastolic arterial pressure, read-out: IC50 (dose which inhibits by 50% the pressure effects of angiotensin II)
Description: 3 - Test for antagonistic activity of angiotensin II in a demedullated rat
Male Sprague-Dawley rats (250 to 350 g) are anaesthetized by an intra-peritoneal injection of sodium pentobarbital (60 mg/kg). The diastolic arterial pressure is recorded by means of a heparinized catheter (PE50) introduced into the left carotid of the animal, and connected to a pressure calculator (Gould, Pressure Processor) by means of a Gould pressure sensor,
A catheter is introduced into the right jugular vein of the animal in order to allow the injection of the molecules to be studied.
The animal is placed under assisted respiration. A bilateral section of the pneumogastric nerves is carried out. The rat is then demedullated.
After a suitable period of stabilization, the study of the antagonism of the molecules vis- -vis angiotensin II (CIBA Hypertensin) is approached in the following manner:
1 - Three consecutive injections of angiotensin II (0.75 micrograms/kg) spaced 15 minutes apart permits a reproducible and stable pressure response to be obtained.
2 - While keeping a time interval of 15 minutes for the administration of angiotensin II, the molecules (0.01 to 10 mg/kg) are injected 5 minutes before the angiotensin II.
The pressure effects of angiotensin II in the presence of the antagonist are expressed as a percentage of the pressure effects of angiotensin II administered on its own. The dose which inhibits the studied effect by 50% is thus determined.
Each animal is considered to be its own control.

[3] = biological target: T1, angiotensin II receptor (Rattus norvegicus, UniProt P25095); experiment: Test on the angiotensin II receptor (displacement of I^125 angiotensin II, rat liver membranes); format: binding; conditions: 25° C., 150 minutes, read-out: IC50 (50% inhibiting concentration, displacement of specific radioactivity fixed on the receptor)
T1 construct: A fresh membrane preparation obtained from the liver of a rat is used; from tissue; host or cells: rat liver, fresh membrane preparation
T1 sequence (P25095 1-359): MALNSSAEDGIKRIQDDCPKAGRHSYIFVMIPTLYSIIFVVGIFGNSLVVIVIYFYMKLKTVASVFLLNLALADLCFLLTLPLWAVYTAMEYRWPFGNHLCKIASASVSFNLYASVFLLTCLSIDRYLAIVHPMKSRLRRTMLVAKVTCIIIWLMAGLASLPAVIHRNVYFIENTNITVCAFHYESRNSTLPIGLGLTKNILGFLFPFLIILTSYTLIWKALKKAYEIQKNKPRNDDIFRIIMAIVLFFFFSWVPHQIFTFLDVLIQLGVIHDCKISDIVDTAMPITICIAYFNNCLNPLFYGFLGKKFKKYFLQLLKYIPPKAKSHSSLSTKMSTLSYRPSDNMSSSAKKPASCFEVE
Description: 1 - Test on the angiotensin II receptor
A fresh membrane preparation obtained from the liver of a rat is used. The tissue is ground up in a polytron in a Tris 50 mM buffer pH 7.4, the grinding is followed by 3 centrifugations at 30,000 g for 15 minutes, the deposits being taken up in between in the Tris buffer pH 7.4.
The last deposits are put in suspension in an incubation buffer (Tris 20 mM, NaCl 135 mM, […], KCl 10 mM, glucose 5 mM, MgCl2 10 mM PMSF 0.3 mM, bacitracin 0.1 mM, BSA 0.2%).
Aliquoted fractions of 2 ml are divided into hemolysis tubes and I^125 angiotensin II (25,000 DPM per tube) and the product to be studied are added. (The product is first tested at 3×10^-5 M three times). When the tested product displaces by more than 50% the radioactivity linked specifically to the receptor, it is tested again according to a range of 7 doses in order to determine the dose which inhibits by 50% the radioactivity linked specifically to the receptor. In this way the 50% inhibiting concentration is determined.
The non-specific bond is determined by addition of the product of Example 94 of the European Patent 0,253,310, at 10^-5 M (three times). The medium is incubated at 25° C. for 150 minutes, put in a water bath at 0° C. for 5 minutes, filtered under vacuum, rinsed with Tris buffer pH 7.4 and the radioactivity is counted in the presence of scintillating Triton.
The result is expressed directly as the 50% inhibiting concentration (IC50), that is as the concentration of studied product, expressed in nM, necessary to displace 50% of the specific radioactivity fixed on the receptor studied.

SMILES	IC50 [1] [nM]	IC50 [3] [nM]	ED50 [2] [mg/kg]
CCCCc1nc([S+]([O-])CC)c(C(=O)O)n1Cc1ccc(-c2ccccc2C(=O)O)cc1 (stereo not drawn) [Example 16, 2-butyl-1-[[2'-carboxy-(1,1'-biphenyl)-4-yl]-methyl]-4-(ethylsulphinyl)-1H-imidazole-5-carboxylic acid]			0.29
CCCCc1nc(S(=O)(=O)CC)c(C(=O)O)n1Cc1ccc(-c2ccccc2C(=O)O)cc1 [Example 18, 2-butyl-1-[[2'-carboxy-(1,1'-biphenyl)-4-yl]-methyl]-4-(ethylsulphonyl)-1H-imidazole-5-carboxylic acid]			0.79
CCCCc1nc(S(=O)(=O)c2ccccc2)c(C(=O)O)n1Cc1ccc(-c2ccccc2C(=O)O)cc1 [Example 26, 2-butyl-1-[[2'-carboxy-(1,1'-biphenyl)-4-yl]-methyl]-4-(phenylsulphonyl)-1H-imidazole-5-carboxylic acid]		47	
CCCCc1nc([S+]([O-])c2ccccc2)c(C(=O)O)n1Cc1ccc(-c2ccccc2C(=O)O)cc1 (stereo not drawn) [Example 28, 2-butyl-1-[[2'-carboxy-(1,1'-biphenyl)-4-yl]-methyl]-4-(phenylsulphinyl)-1H-imidazole-5-carboxylic acid]		10.2	
CCCCc1nc(SC)c(C(=O)O)n1Cc1ccc(-c2ccccc2-c2nnn[nH]2)cc1 [Example 51, 2-butyl-4-(methylthio)-1-[[2'-(1H-tetrazol-5-yl)-(1,1'-biphenyl)-4-yl]-methyl]-1H-imidazole-5-carboxylic acid]	0.14	1.9	0.054
CCCCc1nc(SCc2ccc(OC)cc2)c(C(=O)O)n1Cc1ccc(-c2ccccc2C(=O)O)cc1 [Example 70]	0.56	3.6	0.33
CCCCc1nc(S(C)(=O)=O)c(C(=O)O)n1Cc1ccc(-c2ccccc2-c2nn[nH]n2)cc1 [Example 83]	0.21	1.3	0.022
CCCCc1nc(S(C)(=O)=O)c(C(=O)O)n1Cc1ccc(-c2ccccc2-c2nn[nH]n2)cc1 [Example 84]		0.8	
CCCCc1nc(Sc2ccccc2)c(C(=O)O)n1Cc1ccc(-c2ccccc2-c2nn[nH]n2)cc1 [Example 92]		0.5	0.08
CCCCc1nc(SC)c(C(=O)OCOC(=O)C(C)(C)C)n1Cc1ccc(-c2ccccc2-c2nn[nH]n2)cc1 [Example 106]			0.04

More lines, main results first:

IC50 [1] [nM]	IC50 [3] [nM]	SMILES	ED50 [2] [mg/kg]
13		CCCCc1nc(SCC)c(C(=O)O)n1Cc1ccc(-c2ccccc2C(=O)O)cc1 [Example 6, 2-butyl-1-[[2'-carboxy-(1,1'-biphenyl)-4-yl]-methyl]-4-(ethylthio)-1H-imidazole-5-carboxylic acid]	
10		CCCCc1nc(SCC)c(CO)n1Cc1ccc(-c2ccccc2C(=O)O)cc1 [Example 14, 4'-[[2-butyl-4-(ethylthio)-5-(hydroxymethyl)-1H-imidazol-1-yl]-methyl]-(1,1'-biphenyl)-2-carboxylic acid]	0.78
5	17	CCCCc1nc(Sc2ccccc2)c(C(=O)O)n1Cc1ccc(-c2ccccc2C(=O)O)cc1 [Example 20, 2-butyl-1-[[2'-carboxy-(1,1'-biphenyl)-4-yl]-methyl]-4-(phenylthio)-1H-imidazole-5-carboxylic acid]	
8	49	CCCCc1nc(SC)c(C(=O)O)n1Cc1ccc(-c2ccccc2C(=O)O)cc1 [Example 22, 2-butyl-1-[[2'-carboxy-(1,1'-biphenyl)-4-yl]-methyl]-4-(methylthio)-1H-imidazole-5-carboxylic acid]	0.47
0.9	5.7	CCCCc1nc(SCc2ccccc2)c(C(=O)O)n1Cc1ccc(-c2ccccc2C(=O)O)cc1 [Example 48, 2-butyl-1-[[2'-carboxy-(1,1'-biphenyl)-4-yl]-methyl]-4-[(phenylmethyl)-thio]-1H-imidazole-5-carboxylic acid]	
2	5.8	CCCCc1nc(SCc2ccccc2)c(CO)n1Cc1ccc(-c2ccccc2C(=O)O)cc1 [Example 74]	0.34

Source: patent publication US5684028A, “Sulphorous derivatives of imidazole, their preparation process, the new intermediates obtained, their use as medicaments and the pharmaceutical compositions” (Roussel UCLAF, priority 1990, dated 1997)
